Columns and labels:
Type in all cases: biochemical
[1] = target: T1, Jak2 (Homo sapiens, UniProt O60674); test: JAK2 kinase domain assay (ELISA or Alphascreen); settings: capacity to inhibit 50% of activity at 50 μM; read-out: Jak2 inhibitory activity
T1 construct: The kinase domain of humanJAK2 was amplified from U937mRNA; His tag (from pFastBac HTc vector) (N); made in house; host or cells: baculovirus; Sf9 insect cells for virus, High Five cells for large-scale production
Experimental: (§1) For screening purposes, compounds were diluted in 96 well plates at a concentration of 20 μM. Plates were warmed at 37° C. for 30 minutes before assay.
(§2) • JAK1 PCR products were cloned into the pFastBac HTb expression vector (Gibco) via the Xho I and Kpn I sites. The JAK1 plasmid was then transformed into competent DH10Bac cells (Gibco), and the recombinant baculovirus produced prepared for transfection into Sf9 insect cells. JAK2 • The kinase domain of humanJAK2 was amplified from U937mRNA using the polymerase chain reaction with the following primers:
• JAK2 PCR products were cloned into the pFastBac HTc expression vector (Gibco) via the Sal I and Not I sites. The JAK2 plasmid was then transformed into competent DH10Bac cells (Gibco), and the recombinant baculovirus produced prepared for transfection into Sf9 insect cells. JAK3 • The kinase domain of humanJAK3 was amplified from U937mRNA using the polymerase chain reaction with the following primers: […]
(§3) Baculovirus preparations from each of the JAK family members were infected into five litres of High Five cells (Invitrogen) grown in High Five serum free medium (Invitrogen) to a cell density of approximately 1-2×10^6 cells/ml. Cells are infected with virus at a MOI of 0.8-3.0. Cells were harvested and lysed. JAK kinase domains were purified by affinity chromatography on a Probond (Invitrogen) nickel chelate affinity column.
(§4) Kinase assays were performed either in a 96 well capture-based ELISA assay or in 384 well Optiplates (Packard) using an Alphascreen Protein Tyrosine Kinase kit. In either casse using approximately 1.5 μg of affinity purified PTK domain in the presence of 50 mM HEPES, pH 7.5, 10 mM MgCl2, 150 mM NaCl and 10 μM-1 mM ATP. The biotinylated substrate biotin-EGPWLEEEEEAYGWMDF-NH2 (SEQ ID NO:9) (final concentration 5 μM) was used as substrate. In the ELISA assay tyrosine phosphorylation was quantitated following transfer to an avidin coated ELISA plate using peroxidase-linked anti-phospho-tyrosine antibody PY20. In the Alphascreen assay, Alphascreen phosphotyrosine acceptor beads followed by streptavidin donor beads were added under subdued light. The ELISA plates were read on a BMG Fluorostar, the Alphascreen plates were read on a Packard Fusion Alpha. Inhibitors were added to the assays fifteen minutes prior to the addition of ATP. Inhibitors were added in aqueous DMSO, with DMSO concentrations never exceeding 1%.

[2] = target: kdr (Homo sapiens, UniProt P35968); test: kdr kinase assay (ELISA or Alphascreen); settings: capacity to inhibit 50% of activity at 50 μM; read-out: kdr inhibitory activity
Sequence of kdr (P35968 834-1162 limits assumed, species assumed): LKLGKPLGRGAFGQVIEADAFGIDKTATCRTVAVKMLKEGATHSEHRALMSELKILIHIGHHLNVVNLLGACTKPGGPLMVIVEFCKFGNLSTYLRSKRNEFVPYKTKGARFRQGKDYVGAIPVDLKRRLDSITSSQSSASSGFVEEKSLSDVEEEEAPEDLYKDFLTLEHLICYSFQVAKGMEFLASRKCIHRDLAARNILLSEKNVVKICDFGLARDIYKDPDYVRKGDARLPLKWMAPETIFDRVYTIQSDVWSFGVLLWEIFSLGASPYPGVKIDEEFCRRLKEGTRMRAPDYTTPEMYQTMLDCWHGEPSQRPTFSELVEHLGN
Experimental: as §1, §4

[3] = target: hck (Homo sapiens, UniProt P08631); test: hck kinase assay (ELISA or Alphascreen); settings: capacity to inhibit 50% of activity at 50 μM; read-out: hck inhibitory activity
Sequence of hck (P08631 262-515 limits assumed, species assumed): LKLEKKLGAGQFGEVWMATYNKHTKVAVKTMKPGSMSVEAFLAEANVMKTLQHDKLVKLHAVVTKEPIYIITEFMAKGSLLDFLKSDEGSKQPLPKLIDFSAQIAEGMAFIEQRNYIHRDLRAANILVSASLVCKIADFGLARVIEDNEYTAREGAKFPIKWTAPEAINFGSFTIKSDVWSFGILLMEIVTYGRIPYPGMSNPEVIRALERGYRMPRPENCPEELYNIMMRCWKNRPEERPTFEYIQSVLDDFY
Experimental: as §1, §4

[4] = target: T2, abl (Homo sapiens, UniProt P00519); test: abl kinase assay (ELISA or Alphascreen); settings: capacity to inhibit 50% of activity at 50 μM; read-out: abl inhibitory activity
T2 sequence (P00519 242-493 limits assumed): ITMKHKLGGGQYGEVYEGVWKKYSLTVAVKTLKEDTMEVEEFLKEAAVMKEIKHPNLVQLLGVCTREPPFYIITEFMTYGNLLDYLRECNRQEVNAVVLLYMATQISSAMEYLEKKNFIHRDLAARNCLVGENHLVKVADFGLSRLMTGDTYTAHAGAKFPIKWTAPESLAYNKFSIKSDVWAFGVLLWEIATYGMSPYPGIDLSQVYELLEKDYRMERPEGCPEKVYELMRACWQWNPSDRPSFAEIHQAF
Experimental: as §1, §4

[5] = target: T3, Jak3 (Homo sapiens, UniProt P52333); test: JAK3 kinase domain assay (ELISA or Alphascreen); settings: capacity to inhibit 50% of activity at 50 μM; read-out: Jak3 inhibitory activity
T3 construct: The kinase domain of humanJAK3 was amplified from U937mRNA; His tag (from pFastBac HTb vector) (N); made in house; host or cells: baculovirus; Sf9 insect cells for virus, High Five cells for large-scale production
T3 sequence (P52333 822-1111 limits assumed): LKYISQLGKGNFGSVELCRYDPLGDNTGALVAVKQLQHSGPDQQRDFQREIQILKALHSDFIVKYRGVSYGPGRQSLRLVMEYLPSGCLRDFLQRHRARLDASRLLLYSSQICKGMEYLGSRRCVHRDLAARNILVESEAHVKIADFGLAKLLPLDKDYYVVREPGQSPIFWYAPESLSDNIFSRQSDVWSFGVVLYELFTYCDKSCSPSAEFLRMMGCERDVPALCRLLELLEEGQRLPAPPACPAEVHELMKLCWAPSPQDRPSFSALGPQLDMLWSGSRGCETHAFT
Experimental: as §1
• JAK2 PCR products were cloned into the pFastBac HTc expression vector (Gibco) via the Sal I and Not I sites. The JAK2 plasmid was then transformed into competent DH10Bac cells (Gibco), and the recombinant baculovirus produced prepared for transfection into Sf9 insect cells. JAK3 • The kinase domain of humanJAK3 was amplified from U937mRNA using the polymerase chain reaction with the following primers:
as §2, with “JAK3” for “JAK1”, “TYK2” for “JAK2”, “humanTYK2” for “humanJAK2”, “A549 mRNA” for “U937mRNA”, “primers: […]” for “primers:”
as §3, §4

T1 sequence (O60674 849-1124 limits assumed): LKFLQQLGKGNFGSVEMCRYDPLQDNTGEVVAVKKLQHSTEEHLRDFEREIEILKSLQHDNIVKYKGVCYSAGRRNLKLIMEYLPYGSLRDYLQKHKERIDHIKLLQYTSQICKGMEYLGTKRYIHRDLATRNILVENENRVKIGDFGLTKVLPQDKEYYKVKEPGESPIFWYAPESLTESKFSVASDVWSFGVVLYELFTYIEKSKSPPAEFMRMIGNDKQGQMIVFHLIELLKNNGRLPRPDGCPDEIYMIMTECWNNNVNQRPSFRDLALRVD

SMILES | inhibition at 50 µM [1] [%] | inhibition at 50 µM [2] [%] | inhibition at 50 µM [3] [%] | inhibition at 50 µM [4] [%] | inhibition at 50 µM [5] [%]
C[C@@H](Nc1cncc(-n2cnc3ccccc32)n1)c1ccccc1 | > 50 | > 50 | > 50 | > 50 | < 50
c1ccc(CNc2cncc(-n3ccnc3)n2)cc1 | < 50 | < 50 | > 50 | > 50 | < 50
C[C@H](Nc1cncc(-n2cnc(-c3ccccc3)c2)n1)c1ccccc1 | < 50 | < 50 | > 50 | < 50 | > 50
C[C@H](Nc1cncc(-n2cnc3ccc(C(N)=O)cc32)n1)c1ccccc1 | > 50 | > 50 | > 50 | > 50 | < 50
C[C@H](Nc1cncc(-n2cnc3cc(C(N)=O)ccc32)n1)c1ccccc1 | > 50 | > 50 | > 50 | > 50 | < 50
C[C@H](Nc1cncc(-n2cnc3ccc(C(=O)N4CCOCC4)cc32)n1)c1ccccc1 | < 50 | > 50 | > 50 | > 50 | < 50
C[C@H](Nc1cncc(-n2cnc3cc(C(=O)N4CCOCC4)ccc32)n1)c1ccccc1 | < 50 | > 50 | > 50 | > 50 | < 50
c1cn(-c2cncc(Nc3ccc(N4CCOCC4)cc3)n2)cn1 | > 50 | < 50 | > 50 | > 50 | < 50
C[C@H](Nc1cncc(-n2cnc3cc(NC(=O)c4cccnc4)ccc32)n1)c1ccccc1 | > 50 | > 50 | > 50 | > 50 | < 50
C[C@@H](Nc1cncc(-n2cnc(-c3ccccc3)c2)n1)c1ccccc1 | < 50 | > 50 | > 50 | > 50 | < 50
Cc1cn(-c2cncc(NCc3ccc(F)cc3)n2)cn1 | > 50 | < 50 | < 50 | < 50 | < 50
Cc1nccn1-c1cncc(N[C@H](C)c2ccccc2)n1 | < 50 | < 50 | > 50 | < 50 | < 50
Cc1cncn1-c1cncc(NCc2ccc(F)cc2)n1 | < 50 | < 50 | > 50 | > 50 | < 50
C[C@H](Nc1cncc(-n2cnc3ccc(NC(=O)C4CC4)cc32)n1)c1ccccc1 | < 50 | > 50 | > 50 | > 50 | < 50
C[C@H](Nc1cncc(-n2cnc3cc(NC(=O)C4CC4)ccc32)n1)c1ccccc1 | < 50 | > 50 | > 50 | > 50 | < 50
C[C@H](Nc1cncc(-n2cnc3ccc(C4=NCCO4)cc32)n1)c1ccccc1 | > 50 | > 50 | > 50 | > 50 | < 50
C[C@H](Nc1cncc(-n2cnc3cc(C(=O)NCCO)ccc32)n1)c1ccccc1 | > 50 | > 50 | > 50 | > 50 | > 50
C[C@H](Nc1cncc(-n2cnc3ccc(C(=O)NCCCCN4CCOCC4)cc32)n1)c1ccccc1 | > 50 | > 50 | > 50 | > 50 | > 50
CCN(CC)Cc1ccc2ncn(-c3cncc(NC(C)c4ccc(F)cc4)n3)c2c1 (stereo not drawn) | > 50 | > 50 | > 50 | < 50 | < 50
CC(Nc1cncc(-n2cnc3ccccc32)n1)c1ccc(-c2ccccc2)cc1 (stereo not drawn) | < 50 | < 50 | > 50 | > 50 | < 50
CNCCN(C)Cc1ccc2ncn(-c3cncc(NC(C)c4ccc(F)cc4)n3)c2c1 (stereo not drawn) | > 50 | > 50 | > 50 | < 50 | < 50

Reference: patent US7511047B2, “Kinase inhibitors” (Cytopia Research Pty Ltd, priority 2002, dated 2009)
